The values that follow come from patent US20110123623A1, “RHAMNOLIPID MECHANISM” (priority 2009, published 2011).

Several values for one entry are separate records, joined by “and”; a condition that tells them apart may be missing. Equal entries are not always repeated. Where two headings read alike, the source gives them in different places.

Data set [1] has as its system chronic decubitus ulcer in humans. Nature of the data set: Treatment of chronic decubitus ulcer. It is filed as in vivo, human. Particulars: topical 0.1% eucerin ointment; single case. From the text:
Treatment of Chronic Decubitus Ulcer with Di-Rhamnolipid W3CTS

For data set [2], the system named is T-lymphocyte cells isolated from thymus of balb/c mice. As to the kind of experiment: Mouse T-cell proliferation (thymidine incorporation). It is filed as cell-based. The procedure: T-lymphocyte cells isolated from thymus of balb/c mice weighing 17±1 g were used. Test compound and/or vehicle was incubated with the cells (4×10^6/ml) in the presence of 3 μg/ml concanavalin A (Con A) overnight. Thymidine incorporation was assessed by liquid scintillation counting. B-lymphocyte cells isolated from the spleen of balb/c mice weighing 17±1 g were used. Test compound and/or vehicle was incubated with the cells (1.5×10^6/ml) in the presence of 10 μg/ml lipopolysaccharide (LPS) in AIM-V medium pH 7.4 at 37° C., during 24 hours. [^3H]Thymidine (120 nM) was then added for an additional overnight incubation period. Thymidine incorporation was assessed by liquid scintillation counting. […] T-cells isolated from mouse thymus were inhibited at the concentration of 10 μM by 24% and in the presence of concanavalin T-cells proliferation was inhibited 43%.
A general note: Uptake of a labelled nucleoside into DNA is a usual measure of proliferation.

A short description of data set [3]: Neonatal human fibroblast cell culture (proliferation, viability, apoptosis). The format is cell-based. To be noted: human, neonatal human fibroblasts; 100 μg/ml; presence of serum; read-out: inhibition of viability of fibroblasts. The procedure: (§1) At the same concentration of 100 μg/ml W3CTS increased apoptosis by 72%.
Data set [4] deals with neonatal human fibroblasts. Described as above. The format is cell-based. The procedure: as §1
The subject of the next data set is C. albicans. Nature of the data set: Immunomodulation activity: C. albicans challenge survival. The format is in vivo, mouse. To be noted: 100 mg/kg i/p 24 hours before i/v C. albicans challenge; ICR male mice. Here is the method:
Di-rhamnolipid W3CTS was administered i/p (100 mg/kg) to groups of 10 ICR derived male mice weighing 24±2 g at 24 hours before i/v challenge with a suspension of C. albicans (1×10^7 cfu/mouse) sufficient to result in 90-100% mortality within 10 days in vehicle treated animals. Survival of 20 percent or more (≧20) of the animals is considered significant and indicates possible immunomodulation activity. Reference agent was lipopolysaccharide 0.3 mg/kg i/p.

Data set [5] has as its system Guinea pig lung LTC4 synthetase. Nature of the data set: Leukotriene C4 synthetase inhibition (EIA). The format is biochemical. Particulars: highest concentration 1,000 μM/ml; DMSO 0.5%. The procedure:
Leukotriene C4 (LTC4) synthetase is involved in the formation of LTC4 from LTA4. Taken together with other assays for enzymes involved in the lipoxygenase pathway (e.g. 5-lipoxygenase, LTA4 hydrolase), a locus of action can be established for agents which inhibit the formation of leukotrienes. Guinea pig lung LTC4 synthetase was used. Test compound and/or vehicle was pre-incubated with 180 μg/ml enzyme in phosphate buffer pH 7.8 for 15 minutes at 37° C. The reaction is initiated by the addition of 2.5 μg/ml LTA4 methyl ester for another 30 minute incubation period and terminated by further addition of ice-cold methanol. Determination of the amount of LTC4 formed is read spectrophotometrically by enzyme immunoassay kit (EIA). W3CTS was screened at 1,000; 100; 10; and 1 μM/ml. Solvent was DMSO 0.5%. Sulfazine was used as a reference. Inhibition was 81% at the highest concentration of 1,000 μM/ml.

Another data set concerns psoriatic patients. Nature of the data set: Physician sponsored treatment of psoriatic patients (PASI). It is filed as in vivo, human. From the text: Twelve psoriatic hospital bed patients, and one patient with seborrheic dermatitis and psoriasis, one patient with lichen planus and one with dermatitis cicumscripta unilocullaris as an out clinic patient were recruited as study volunteers.
Abbreviations: PASI=Psoriasis Area Severity Index (Erythema, Infiltration and Scaling); PVP=Psoriasis Vulgaris in Placibus; d=days; m=months; y=years; ster=steroids (treated)

In data set [6] the test system is female Swiss-Webster mice. Nature of the data set: Induction and challenge phases of DTH in the mouse ear. The format is in vivo. The text has this:
Effects of Di-Rhamnolipid W3CTS on the Induction and Challenge Phases of DTH in Female Swiss-Webster Mice.
The aims of this study were first, to evaluate the in-vivo effects of Di-rhamnolipid W3CTS on aspects of a T-cell mediated immune response in mice and second, to determine if Di-rhamnolipid W3CTS was a sensitizing agent. This formed one of a series of studies to evaluate the toxicity and functionality of Di-rhamnolipid W3CTS.
The model used was induced delayed-type hypersensitivity (DTH) response in the mouse ear. In general, the DTH model involves administering a sensitizing agent mixed with an adjuvant, one or more occasions to prime the immune system. One to two weeks after the final induction and boost(s), animals are re-exposed to the sensitizing antigen, with a small volume injected intradermally in the ear, to elicit a secondary response (challenge). The ear swells during the secondary T-cell mediated response, and thus the change in ear thickness from prestimulation can be quantified. The present study had several sub-components testing different components of the immune response.
Parts A & B followed the standard procedure, in which the treatment test article, Di-rhamnolipid W3CTS, was administered topically concurrent to the challenge with sensitizing agent. Additionally, the effects of Di-rhamnolipid W3CTS on development of the primary immune response were also tested (Parts C&D). Therefore it was possible to obtain preliminary information about potential activity of Di-rhamnolipid W3CTS on more than one arm of the immune system. In parts B, C, and D, the protein ovalbumin, in CFA (Complete Freund's Adjuvant) or IFA (Incomplete Freund's Adjuvant) was used as the sensitizing agent as it is a standard with well-characterized, quantifiable activity in DTH. An additional compound, DNCB (1-chloro-2,4-di-nitro benzene) with gamma interferon (IFN-gamma), was also used (Group A) in order to maximize the opportunity to characterize the activity of Di-rhamnolipid W3CTS on T-cell mediated immunity. […]

The nature of data set [7]: Storage stability of Di-rhamnolipid W3CTS. It is filed as physicochemical. Particulars: kept under Nitrogen in bottles at room temperature, 10 years. From the text: Di-rhamnolipid W3CTS has been isolated from Pseudomonas aeruginosa. Production of >98.5% pure Di-rhamnolipid W3CTS is a very expensive procedure; thus, the goal is to produce the clinically accepted purity of the rhamnolipid that has a long shelf life.

For `CCCCCCCC(CC(=O)O)OC(=O)CC(CCCCCCC)OC1OC(C)C(O)C(O)C1OC1OC(C)C(O)C(O)C1O` (stereo not drawn) [Di-rhamnolipid W3CTS], in data set [1], the “healing of chronic decubitus ulcer” value was “profound beneficial effect on the healing”. Besides, the inhibition at 10 µM in data set [2] (in the presence of concanavalin, read-out: inhibition of T-cells proliferation) was 43%; in data set [2] (without concanavalin, read-out: inhibition of T-cells) it was 24%. Also, the cytotoxicity at 100 μg/ml in data set [3] was 28%. For the same molecule, the “increase of apoptosis of fibroblasts” value in [4] (100 μg/ml, presence of serum) came to 72%. In data set [4] (200 μg/ml and 500 μg/ml, causing necrosis), the “cell proliferation and viability, fibroblasts” value is “fully inhibited cell proliferation and viability”. Besides, in data set [4] (Homo sapiens, Fibroblast, 100 μg/ml, presence of serum), the inhibition at 100 µg/mL is 46%. In addition, the “immunomodulation activity (survival of 20 percent or more considered significant)” value in the data set with C. albicans was “possible significant immunomodulation activity”. The “Inhibition of LTC4 synthetase” value in [5] is given as 81%. In addition, in the data set with psoriatic patients (1.0% eucerin ointment, 15-40 treating days, one patient per line), the “Psoriasis Area Severity Index After Treatment W3CTS” value was 0.2 (5×) and 0.3 and 0.4 and 6 and 0.6 (2×) and 1.6 and 0.9. Further, the “Psoriasis Area Severity Index Extended Evaluation W3CTS” value is 1 y = 0 in the data set with psoriatic patients (1 y (year), one patient per line); 3 m = 0 (2×) and 3 m relapse and 3 m = 0.1 in the data set on psoriatic patients (3 m (months), one patient per line). Besides, the “Psoriasis Area Severity Index Before Treatment W3CTS” value in the data set on psoriatic patients (baseline of W3CTS treated lesions, one patient per line) was 9.6 (2×) and 8.1 (3×) and 10.8 (4×) and 14.4 and 5.4 and 8.4. Also, the “duration free of psoriatic lesions” value in the data set on psoriatic patients (some of the patients) is “free of psoriatic lesions up to seven years”. For the same molecule, in data set [6] (concurrently administered at induction with ovalbumin/IFA), the “effect on subsequent DTH response (Part C)” value is “inhibit the subsequent DTH response”. The “effect on primary immune response (Part D)” value in data set [6] (given at induction) is “did not show potential to enhance a primary immune response”. In addition, in [6] (topical at challenge, ovalbumin/CFA), the “effect on secondary immune response, DTH (Part B)” value is reported as “sustained or increased DTH response”. Besides, the “change of structure on storage” value in [7] is “did not change its structure during 10 years”.
